Measurements reported in article PMC6757289, “Design and Characterization of SGK3-PROTAC1, an Isoform Specific SGK3 Kinase PROTAC Degrader” (ACS Chemical Biology, 2019).

What was measured:
Assay type in all cases: cell-based
S6K1 = S6K1 (Homo sapiens, UniProt P23443); test: S6K1 protein level in HEK293 cells, immunoblot; design: reduced endogenous SGK isoform or S6K1 expression when administered to HEK293 cells for 48 h; endogenous in cells; host or cells: HEK293
Protocol: A medium length linker composed of three PEG units was used in the first instance (Figure 1B and C). […] After 48 h of PROTAC treatment, cell lysates were analyzed by immunoblot analysis, and protein expression under each condition was quantified relative to the DMSO-only control. […] DAT1 reduced SGK3 expression by 60% at 1 μM and 75% at 10 μM after 48 h (Figure 1D). […] As expected, inhibition of CUL2 neddylation by means of the inhibitor MLN4924 (3 μM) or proteasome inhibition (MG132, 50 μM) blocked DAT1-induced degradation of SGK3 (Figure S1C).
(§1) All cell treatments were carried out as described in figure legends, to a final DMSO concentration of 0.1% (v/v). Lysates were quantified. Immunoblotting was performed using standard procedures, described in brief below. Lysate concentration was quantified by Bradford Assay, and 10 μg of lysate was loaded in the LDS sample buffer for SDS-PAGE electrophoresis on Novex 4–12% Bis–Tris gels. Proteins were electrophoretically transferred onto nitrocellulose membranes (Amersham Protran 0.45 μm NC; GE Healthcare) at 80 V for 80 min on ice in transfer buffer. Transferred membranes were blocked with 5% (w/v) nonfat dry milk dissolved in TBS-T [20 mM Tris/HCl, pH 7.5, 150 mM NaCl, and 0.1% (v/v) Tween 20] at RT for 30 min, before incubation with the primary antibody overnight at 4 °C. The signal was produced with near-infrared secondary antibodies and detected using a Licor Biosciences Odyssey System, and the signal was quantified in Image Studio Lite.

SGK3 = biological target: T1, SGK3 (Homo sapiens, UniProt Q96BR1); test: SGK3 degradation in CAMA-1 cells, immunoblot; conditions: for SGK3 expression: CAMA-1, 5 days 1 μM GDC0941 or AZD5363, 0.3 μM for 5 days or 8 h
T1 sequence (Q96BR1 1-496): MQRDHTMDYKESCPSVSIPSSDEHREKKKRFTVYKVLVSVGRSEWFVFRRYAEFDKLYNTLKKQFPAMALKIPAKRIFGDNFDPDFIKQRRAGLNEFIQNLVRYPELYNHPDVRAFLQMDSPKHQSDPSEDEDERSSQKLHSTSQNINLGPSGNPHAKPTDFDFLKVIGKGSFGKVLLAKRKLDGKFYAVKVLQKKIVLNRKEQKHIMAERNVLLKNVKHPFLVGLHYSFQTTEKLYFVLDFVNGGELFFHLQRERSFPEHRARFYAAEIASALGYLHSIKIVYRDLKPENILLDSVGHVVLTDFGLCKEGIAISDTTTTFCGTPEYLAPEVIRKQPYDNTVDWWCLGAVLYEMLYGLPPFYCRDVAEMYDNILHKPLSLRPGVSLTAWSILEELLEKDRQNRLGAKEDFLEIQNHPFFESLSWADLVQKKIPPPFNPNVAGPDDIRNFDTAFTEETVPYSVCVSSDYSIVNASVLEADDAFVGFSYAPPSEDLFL
Protocol: Figure 3 Characterization of cellular activities of SGK3-PROTAC1 and cisSGK3-PROTAC1. (A) HEK293 cells were first treated for 8 h with 0.03–3 μM SGK3-PROTAC1 and cisSGK3-PROTAC1. One hour before lysis, cells were treated with 3 μM AZD5363. Lysates were subjected to immunoblot analysis with the indicated antibodies. […] Lysates were subjected to immunoblot analysis with the indicated antibodies. (C) HEK293 cells were treated for up to 48 h with SGK3-PROTAC1 (0.3 μM), and lysates were analyzed by immunoblot analysis using the indicated antibodies. (D) HEK293 cells were treated for 24 h with SGK3-PROTAC1. Cells were washed three times with DMEM to wash out the compound, and recovery of SGK3 expression protein was analyzed by immunoblot analysis. (E–G) As in A except that CAMA-1 (E), ZR-75-1 (F), and JIMT-1 (G) cells were employed rather than HEK293 cells.
Figure 5 SGK3-PROTAC1-mediated degradation of SGK3 inhibits Akt-independent activation of mTORC1 in cancer cell lines treated with Akt or PI3K inhibitors. CAMA-1 (A, C) or ZR-75-1 (B, D) were treated for 5 days with 1 μM GDC0941 (A, B) or 1 μM AZD5363 (C, D). Cells were treated with the compounds indicated for either 5 days or 8 h before lysis; cells were treated with the compounds indicated. Cell lysates were subject to immunoblot analysis with the indicated antibodies.
as §1

CAMA-1 cells = test: Cell growth (confluency, Incucyte S3); conditions: for growth in combination with GDC0941 or AZD5363: 1 μM GDC0941 or AZD5363, SGK3-PROTAC1/cisSGK3-PROTAC1 0.3 μM, 14H 3 μM
Protocol: (§2) Figure 6 SGK3-PROTAC1-mediated degradation of SGK3 further inhibiting the growth of cancer cell lines treated with PI3K-Akt pathway inhibitors. CAMA-1 (A, C) and ZR-75-1 (B, D) were treated with compounds as indicated either as monotherapy or in combination, and confluency was measured on the Incucyte S3 every 4 h for up to 4 weeks.
(§3) For growth assays, ZR-75-1 cells were seeded in 96-well plates at a density of 6000 cells/well and left to adhere overnight. Cells were then treated with compounds as described in the figure legends and imaged every 4 h on the Incucyte S3 (Essen Bioscience) for up to 4 weeks to give a measure of cell confluency. Media were refreshed every 4–5 days.
(§4) Supplementary Figure S3. SGK3-PROTAC compounds have no effect on cell growth. CAMA-1 and ZR-75-1
(§5) confluency was m easured every 4 h on Incucyte S3.
(§6) (1 picture or pasted object on this page, not shown here)

ZR-75-1 cells = test: Cell growth (confluency, Incucyte S3); conditions: for growth in combination with GDC0941 or AZD5363: 1 μM GDC0941 or AZD5363, SGK3-PROTAC1/cisSGK3-PROTAC1 0.3 μM, 14H 3 μM
Protocol: as §2, §3, §4, §5, §6

Sequence of S6K1 (P23443 whole entry, canonical isoform): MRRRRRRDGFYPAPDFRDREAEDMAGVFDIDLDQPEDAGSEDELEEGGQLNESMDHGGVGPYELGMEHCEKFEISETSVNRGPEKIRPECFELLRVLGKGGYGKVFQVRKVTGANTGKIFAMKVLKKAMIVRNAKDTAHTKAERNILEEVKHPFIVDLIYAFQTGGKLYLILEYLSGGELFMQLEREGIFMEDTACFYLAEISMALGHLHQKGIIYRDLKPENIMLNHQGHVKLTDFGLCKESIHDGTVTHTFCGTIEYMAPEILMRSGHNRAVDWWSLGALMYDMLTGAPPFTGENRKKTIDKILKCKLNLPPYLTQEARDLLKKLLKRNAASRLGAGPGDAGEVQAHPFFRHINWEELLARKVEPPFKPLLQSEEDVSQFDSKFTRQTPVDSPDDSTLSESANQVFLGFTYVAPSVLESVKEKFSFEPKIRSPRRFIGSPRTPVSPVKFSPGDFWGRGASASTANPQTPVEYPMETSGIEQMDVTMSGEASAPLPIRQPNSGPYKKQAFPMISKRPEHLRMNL

| Compound | S6K1 level (S6K1; HEK293, 48 h, up to 10 μM) | concentration inducing degradation of SGK3 (SGK3; CAMA-1, 8 h) [µM] | SGK3 expression (SGK3) | growth, compound alone (CAMA-1 cells; CAMA-1) | suppression of growth compared with 14H (3 μM) (CAMA-1 cells; CAMA-1, 0.3 μM, with AZD5363 1 μM) | inhibition of cell growth compared with 14H (3 μM) (CAMA-1 cells; CAMA-1, 0.3 μM, with GDC0941 1 μM) | growth in combination with GDC0941 or AZD5363 (CAMA-1 cells; CAMA-1) | growth, compound alone (ZR-75-1 cells; ZR-75-1) | suppression of growth compared with 14H (3 μM) (ZR-75-1 cells; ZR-75-1, 0.3 μM, with AZD5363 1 μM) | inhibition of cell growth compared with 14H (3 μM) (ZR-75-1 cells; ZR-75-1, 0.3 μM, with GDC0941 1 μM) | growth in combination with GDC0941 or AZD5363 (ZR-75-1 cells; ZR-75-1) | S6K1 degradation (S6K1; HEK293, 8 h, doses of up to 1 μM) | S6K1 level (S6K1; HEK293, 48 h, 0.1 μM) | S6K1 degradation (S6K1; HEK293, 48 h, 1–10 μM) | degradation of SGK3 (SGK3; CAMA-1, 8 h, 0.03–3 μM) |
| --- | --- | --- | --- | --- | --- | --- | --- | --- | --- | --- | --- | --- | --- | --- | --- |
| Cc1ccc(F)c(S(=O)(=O)Nc2ccc(-c3nc(OC[C@H]4CN(CCOCCOCCOCC(=O)N[C@H](C(=O)N5C[C@H](O)C[C@H]5C(=O)NCc5ccc(-c6scnc6C)cc5)C(C)(C)C)CCO4)c4cn[nH]c4n3)cc2)c1 [DAT1] | not significantly impacted |  |  |  |  |  |  |  |  |  |  |  |  |  |  |
| Cc1ccc(F)c(S(=O)(=O)Nc2ccc(-c3nc(OC[C@H]4CN(CCCCCCOCCOCCOCC(=O)N[C@H](C(=O)N5C[C@H](O)C[C@H]5C(=O)NCc5ccc(-c6scnc6C)cc5)C(C)(C)C)CCO4)c4cn[nH]c4n3)cc2)c1 [SGK3-PROTAC1] |  | > 0.1 | substantially reduced | no effect on growth | to a similar extent | to a greater extent | further reduced the growth | no effect on growth | to a similar extent | to a greater extent | further reduced the growth | no degradation | without effecting | moderate degradation |  |
| Cc1ccc(F)c(S(=O)(=O)Nc2ccc(-c3nc(OC[C@H]4CN(CCCCCCOCCOCCOCC(=O)N[C@H](C(=O)N5C[C@@H](O)C[C@H]5C(=O)NCc5ccc(-c6scnc6C)cc5)C(C)(C)C)CCO4)c4cn[nH]c4n3)cc2)c1 [cisSGK3-PROTAC1] |  |  | no significant effect |  |  |  | minimal effect |  |  |  | minimal effect |  |  |  | no impact |
